These results are taken from US20120252721A1 (priority 2011, published 2012).

A short description of one data set: in vitro. Type of data set: cell-based, human. To be noted: human; Table 1B, cellular viability. A digest of the protocol: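 Cytotoxicity counter-screen in which the H1a-luc or Zluc cells were compound-treated and viability was read with the CellTiter 96 AQueous One (MTS) reagent by absorbance at 490 nm. CC50 values came from curve fitting.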
For data set [1], the system named is HCV genotype 4a NS5A within the 1b-replicon. Kind of data set: Luciferase replicon assay, NS5A-intergenotypic stable cell line genotype 4a. Type of data set: cell-based. To be noted: Hepatitis C virus, read-out: EC50 4a. The source says: (§1) The nucleotide sequences of the NS5A region of genotype 2a (GenBank Accession # AB047639), genotype 3a (GenBank Accession #D17763), and genotype 4a (GenBank Accession# DQ418788) were synthesized by an outside vendor. The NS5A region of each of these genotypes included the first 11 amino acids of the protease recognition sequence of genotype 1b, as well as the last 10 amino acids of genotype 1b. The NS5A gene cassettes were excised with site specific restriction endonucleases and ligated into a ZS11-luciferase genotype 1b backbone (backbone contains the genotype 1b NS3 protease, NS4a, NS4b, and NS5b coding regions) with similarly cut restriction enzyme sites. Thus, the newly constructed plasmid contains a genotype 2a-, 3a- or 4a-specific NS5A gene within the 1b-replicon.
(§2) These new intergenotypic plasmids were used to establish stable cell lines. RNA was generated from the NS5A intergenotypic plasmids and used in conjunction with a lipofectin reagent to transfect a cured Huh7 cell line. Transfected cells were selected for with G418. After selection has occurred the stable cell lines were propagated, tested for luciferase activity, and RT-PCR with genotype specific primers (either 1a, 2a, 3a, or 4a). Stable cell lines containing the intergenotypic replicon were then fully sequenced and analyzed for proper expression of NS3, NS5A and NS5B proteins.
(§3) Drug titration analysis was performed using the luciferase replicon assay described herein.
The HCV luciferase replicon assay measures the ability of a test compound to inhibit HCV replication in cell culture after 3 days of treatment in a human hepatoma cell line (Huh-7) bearing an HCV replicon containing a luciferase-neomycin phosphotransferase fusion gene. The inhibition of HCV replication was measured by quantification of luciferase protein expression. Briefly, Huh-7 cells containing either the HCV genotype 1a H77 strain or genotype 1b Con1 strain subgenomic luciferase replicon (H1a-luc or Zluc, respectively) were grown in DMEM containing glucose, L-glutamine and sodium pyruvate, 10% fetal bovine serum (FBS), 100 IU/mL penicillin, 100 μg/mL streptomycin, 2 mM GlutaMAX, non-essential amino acids and 0.25 (H1a-luc) or 0.5 (Zluc) mg/mL G418. GlutaMAX was obtained from Invitrogen, Corp.; all other media reagents were obtained from Mediatech, Inc. For dose-response testing, the cells were seeded in 96-well plates at 1×10^4 (H1a-luc) or 7.5×10^3 (Zluc) cells/well in a volume of 50 μL, and incubated at 37° C./5% CO2. Three hours after plating, 50 μL of ten 5-fold serial dilutions of compound were added, and cell cultures were incubated at 37° C./5% CO2 for 72 hours. In all cases, Huh-7 cells lacking the HCV replicon served as negative control. To assess luciferase expression, the media/compound was removed from the plates and ONE-glo Luciferase assay reagent (Promega) was added to each well. The assay plates were shaken for 3 minutes at room temperature and luciferase activity for each well was measured with a 1 sec read time on the Victor^3V multilabel counter using a 700 nm cut-off filter (Perkin Elmer). EC50 values were calculated from dose response curves from the resulting best-fit equations determined by Microsoft Excel and XLfit 4.1 software.
(In general: A replicon is a self-replicating genome or part of one, used to study replication in cells.)

In the next data set the test system is HCV genotype 2a. Kind of data set: Genotype 2a assay (NS5A-intergenotypic luciferase replicon / genotype 2a infectious virus assay). Type of data set: cell-based. Conditions: Hepatitis C virus, read-out: EC50 2a.
Excerpt: as §1, §2, §3
The genotype 2a infectious virus assay measures the ability of a test compound to inhibit HCV replication in cell culture after 5 days of treatment at the time of HCV genotype 2a virus infection of a permissive human hepatoma cell line (HPC cells). The inhibition of HCV replication was measured by quantification of HCV core protein expression by an enzyme-linked immunosorbent assay (ELISA). Briefly, HPC cells were grown in DMEM containing glucose, L-glutamine and sodium pyruvate, 10% FBS, 100 IU/mL penicillin, 100 μg/mL streptomycin, 2 mM GlutaMAX, and non-essential amino acids. GlutaMAX was obtained from Invitrogen, Corp.; all other media reagents were obtained from Mediatech, Inc. For dose-response testing, ninety-six-well plates were seeded with HPC cells at a density of 2.5×10^3 cells/well in a volume of 50 μL, and incubated at 37° C./5% CO2. Three hours after plating, 50 μL of ten 5-fold serial dilutions of compound and 100 μL of genotype 2a virus were added, and cell cultures were incubated at 37° C./5% CO2. In all cases, mock infected HPC cells served as negative control. At 16 hours post treatment and infection, the virus inoculum was removed by aspiration. The cultures were treated at the same final concentrations of drug diluted in media and incubated for 4 additional days at 37° C./5% CO2. Subsequently, the core ELISA was performed as follows. The plates were fixed for 90 seconds with acetone/methanol (1:1, v/v), washed three times with KPL wash solution (KPL, Inc.), blocked for 1 hr at room temperature with TNE buffer containing 10% FBS and then incubated for 2 hr at 37° C. with the anti-HCV core mouse monoclonal antibody (Thermo Scientific) diluted in the same buffer. After washing three times with KPL wash solution, the cells were incubated for 1 hr at 37° C. with an anti-mouse immunoglobulin G-peroxidase conjugate in TNE/10% FBS. After washing as described above, the reaction was developed with O-phenylenediamine (Invitrogen). The reaction was stopped after 30 min with 2 NH2SO4, and absorbance was read at 490 nm in a Victor^3V 1420 multilabel counter (Perkin Elmer) and EC50 concentrations were determined using Microsoft Excel and XLfit 4.1 software.
The HCV luciferase replicon assay measures the ability of a test compound to inhibit HCV replication in cell culture after 3 days of treatment in a human hepatoma cell line (Huh-7) bearing an HCV replicon containing a luciferase-neomycin phosphotransferase fusion gene. […]

Data set [2] concerns HCV genotype 3a NS5A within the 1b-replicon. In words: Luciferase replicon assay, NS5A-intergenotypic stable cell line genotype 3a. The class given is cell-based. To be noted: Hepatitis C virus, read-out: EC50 3a. The method, boiled down: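 Stable cured-Huh7 lines carry a 1b luciferase replicon with genotype 3a or 4a NS5A, selected with G418. Cells were treated with ten 5-fold compound dilutions for 72 h at 37 °C. Replication was read as luciferase signal, and EC50 was fitted from dose-response curves.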

Regarding `COC(=O)N[C@H](C(=O)N1CCC[C@H]1c1ncc(-c2ccc(-c3csc4c(-c5cnc([C@@H]6CCCN6C(=O)[C@@H](NC(=O)OC)C(C)C)[nH]5)csc34)cc2)[nH]1)C(C)C` [Compound A15, [(S)-1-((S)-2-{4-[4-(6-{2-[(S)-1-((S)-2-methoxycarbonylamino-3-methyl-butyryl)-pyrrolidin-2-yl]-3H-imidazol-4-yl}-thieno[3,2-b]thiophen-3-yl)-phenyl]-1H-imidazol-2-yl}-pyrrolidine-1-carbonyl)-2-methyl-propyl]-carbamic acid methyl ester], the CC50 in “in vitro” lay within 10000 to 75000 nM. The figures for the EC50 (in data set [1]; in the data set on HCV genotype 2a; in data set [2]) were < 0.1 nM, < 0.1 nM and 0.1 to 1 nM, respectively.

As a reminder, the CC50 is the concentration at which the toxic effect on the cells reaches its halfway point. The EC50 is the concentration giving half of the maximal effect.
